Laboratory results reported in the supplement of paper PMC11208160.

Test: recombinant UMI read abundance after kanamycin selection (control-corrected) (log10(CPM+1)); higher = more efficient recombination; extreme values may be limits of the assay; sequences stand for … in AGTGCAGAGAAAATCGGCCAGTTTTCTCTGCCTGCAGTCCGCATGCCGTGGGACCCCTTGGGTTCTAACCTGTTGCCTAGATTTATGCAGCGGACTGCCTTTCTCCCAAAGTGATAAACCGG…AGGTTGGTTTCACT; site = the 11-nt donor
Outline: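 Under IPTG (0.07 mM) plus kanamycin, or without selection, Escherichia coli carrying a UMI-tagged donor and donor-binding-loop pair library and a target plasmid for the IS621 bridge recombinase were plated in two replicates. Recombinant UMIs were PCR-amplified across the donor–target junction and sequenced. Counts were converted to CPM, averaged over replicates, scaled by control-derived factors and reported as log10(CPM+1).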
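Also: IS621 bridge recombinase in Escherichia coli cells against a fixed T5 target plasmid.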

| Sequence | recombinant UMI read abundance (log10) |
| --- | --- |
| GAGTACCCATGGACCGGTTTTCCCGGTAATCCGTATTTGTT (site GAGTACCCTAA) | 0.0215 |
| GAGTGCGCATGGACCGGTTTTCCCGGTAATCCGTATTTGTC (site GAGTGCGCTGA) | 2.71 |
| GAGTGGCCATGGACCGGTTTTCCCGGTAATCCGTATTTGCA (site GAATGGCCTTG) | 0 |
| GAGTGGCCATGGACCGGTTTTCCCGGTAATCCGTATTTGCA (site GACTGGCCTTG) | 0 |
| GAGTGGCCATGGACCGGTTTTCCCGGTAATCCGTATTTGCA (site GAGTGGCCTTG) | 0 |
| GAGTGGCCATGGACCGGTTTTCCCGGTAATCCGTATTTGCA (site GATTGGCCTTG) | 0 |
| GAGTTGGCATGGACCGGTTTTCCCGGTAATCCGTATTTGTA (site GAGTTGGCTTA) | 2.18 |
| GATAAGGCATGGACCGGTTTTCCCGGTAATCCGTATTTGCG (site GATAAGGCTCG) | 1.83 |
| GATAAGGCATGGACCGGTTTTCCCGGTAATCCGTATTTGGC (site GATAAGGCTGC) | 1.3 |
| GATATGCCATGGACCGGTTTTCCCGGTAATCCGTATTTGCT (site GATATGCCTAG) | 0 |
| GATCCACCATGGACCGGTTTTCCCGGTAATCCGTATTTGGT (site GATCCACCTAC) | 0.0102 |
| GATCGACCATGGACCGGTTTTCCCGGTAATCCGTATTTGTC (site GATCGACCTGA) | 0 |
| GATCGAGCATGGACCGGTTTTCCCGGTAATCCGTATTTGCA (site GATCGAGCTTG) | 1.04 |
| GATCGAGCATGGACCGGTTTTCCCGGTAATCCGTATTTGCA (site GCTCGAGCTTG) | 1.17 |
| GATCGAGCATGGACCGGTTTTCCCGGTAATCCGTATTTGCA (site GGTCGAGCTTG) | 1.15 |
| GATCGAGCATGGACCGGTTTTCCCGGTAATCCGTATTTGCA (site GTTCGAGCTTG) | 1.58 |
| GATCGTGCATGGACCGGTTTTCCCGGTAATCCGTATTTGGC (site GATCGTGCTGC) | 1.18 |
| GATCTAACATGGACCGGTTTTCCCGGTAATCCGTATTTGTC (site GATCTAACTGA) | 0 |
| GATCTGCCATGGACCGGTTTTCCCGGTAATCCGTATTTGAT (site GATCTGCCTAT) | 0.0121 |
| GATGAGACATGGACCGGTTTTCCCGGTAATCCGTATTTGAA (site GATGAGACTTT) | 1.82 |
| GATTAACCATGGACCGGTTTTCCCGGTAATCCGTATTTGCT (site GATTAACCTAG) | 0 |
| GATTAACCATGGACCGGTTTTCCCGGTAATCCGTATTTGCT (site GATTACCCTAG) | 0 |
| GATTAACCATGGACCGGTTTTCCCGGTAATCCGTATTTGCT (site GATTAGCCTAG) | 0 |
| GATTAACCATGGACCGGTTTTCCCGGTAATCCGTATTTGCT (site GATTATCCTAG) | 0.0295 |
| GATTAGCCATGGACCGGTTTTCCCGGTAATCCGTATTTGCT (site GATTAACCTAG) | 0 |

| Sequence | recombinant UMI read abundance (log10) |
| --- | --- |
| GATTAGCCATGGACCGGTTTTCCCGGTAATCCGTATTTGCT (site GATTACCCTAG) | 0 |
| GATTAGCCATGGACCGGTTTTCCCGGTAATCCGTATTTGCT (site GATTAGCCTAG) | 0 |
| GATTAGCCATGGACCGGTTTTCCCGGTAATCCGTATTTGCT (site GATTATCCTAG) | 0 |
| GATTATACATGGACCGGTTTTCCCGGTAATCCGTATTTGCT (site GATTATACTAG) | 1.87 |
| GATTATACATGGACCGGTTTTCCCGGTAATCCGTATTTGCT (site GATTATCCTAG) | 0 |
| GATTATACATGGACCGGTTTTCCCGGTAATCCGTATTTGCT (site GATTATGCTAG) | 0 |
| GATTATACATGGACCGGTTTTCCCGGTAATCCGTATTTGCT (site GATTATTCTAG) | 0 |
| GATTATCCATGGACCGGTTTTCCCGGTAATCCGTATTTGCA (site GATTATCCTAG) | 0 |
| GATTATCCATGGACCGGTTTTCCCGGTAATCCGTATTTGCA (site GATTATCCTCG) | 0 |
| GATTATCCATGGACCGGTTTTCCCGGTAATCCGTATTTGCA (site GATTATCCTGG) | 0 |
| GATTATCCATGGACCGGTTTTCCCGGTAATCCGTATTTGCA (site GATTATCCTTG) | 0 |
| GATTATCCATGGACCGGTTTTCCCGGTAATCCGTATTTGCG (site GATTATCCTAG) | 0 |
| GATTATCCATGGACCGGTTTTCCCGGTAATCCGTATTTGCG (site GATTATCCTCG) | 0.363 |
| GATTATCCATGGACCGGTTTTCCCGGTAATCCGTATTTGCG (site GATTATCCTGG) | 0 |
| GATTATCCATGGACCGGTTTTCCCGGTAATCCGTATTTGCG (site GATTATCCTTG) | 0 |
| GATTATTCATGGACCGGTTTTCCCGGTAATCCGTATTTGCT (site GATTATACTAG) | 0 |
| GATTATTCATGGACCGGTTTTCCCGGTAATCCGTATTTGCT (site GATTATCCTAG) | 0 |
| GATTATTCATGGACCGGTTTTCCCGGTAATCCGTATTTGCT (site GATTATGCTAG) | 0 |
| GATTATTCATGGACCGGTTTTCCCGGTAATCCGTATTTGCT (site GATTATTCTAG) | 1.96 |
| GATTCACCATGGACCGGTTTTCCCGGTAATCCGTATTTGCG (site GATTCACCTCG) | 0.00637 |
| GATTCCCCATGGACCGGTTTTCCCGGTAATCCGTATTTGGG (site TTAGGTTCTGA) | 0 |
| GATTCTCCATGGACCGGTTTTCCCGGTAATCCGTATTTGCT (site GATTATCCTAG) | 0 |
| GATTCTCCATGGACCGGTTTTCCCGGTAATCCGTATTTGCT (site GATTCTCCTAG) | 0.753 |
| GATTCTCCATGGACCGGTTTTCCCGGTAATCCGTATTTGCT (site GATTGTCCTAG) | 0 |
| GATTCTCCATGGACCGGTTTTCCCGGTAATCCGTATTTGCT (site GATTTTCCTAG) | 0 |

| Sequence | recombinant UMI read abundance (log10) |
| --- | --- |
| GATTGGACATGGACCGGTTTTCCCGGTAATCCGTATTTGGC (site GATTGGACTGA) | 0 |
| GATTGGACATGGACCGGTTTTCCCGGTAATCCGTATTTGGC (site GATTGGACTGC) | 1.65 |
| GATTGGACATGGACCGGTTTTCCCGGTAATCCGTATTTGGC (site GATTGGACTGG) | 0 |
| GATTGGACATGGACCGGTTTTCCCGGTAATCCGTATTTGGC (site GATTGGACTGT) | 1.63 |
| GATTGGCCATGGACCGGTTTTCCCGGTAATCCGTATTTGAC (site GATTGGACTGT) | 0 |
| GATTGGCCATGGACCGGTTTTCCCGGTAATCCGTATTTGAC (site GATTGGCCTGT) | 0 |
| GATTGGCCATGGACCGGTTTTCCCGGTAATCCGTATTTGAC (site GATTGGGCTGT) | 0 |
| GATTGGCCATGGACCGGTTTTCCCGGTAATCCGTATTTGAC (site GATTGGTCTGT) | 0 |
| GATTGGCCATGGACCGGTTTTCCCGGTAATCCGTATTTGCA (site GAATGGCCTTG) | 0 |
| GATTGGCCATGGACCGGTTTTCCCGGTAATCCGTATTTGCA (site GACTGGCCTTG) | 0 |
| GATTGGCCATGGACCGGTTTTCCCGGTAATCCGTATTTGCA (site GAGTGGCCTTG) | 0 |
| GATTGGCCATGGACCGGTTTTCCCGGTAATCCGTATTTGCA (site GATTGGCCTTG) | 0.00508 |
| GATTGGGCATGGACCGGTTTTCCCGGTAATCCGTATTTGAC (site GATTGGACTGT) | 0.803 |
| GATTGGGCATGGACCGGTTTTCCCGGTAATCCGTATTTGAC (site GATTGGCCTGT) | 0 |
| GATTGGGCATGGACCGGTTTTCCCGGTAATCCGTATTTGAC (site GATTGGGCTGT) | 1.51 |
| GATTGGGCATGGACCGGTTTTCCCGGTAATCCGTATTTGAC (site GATTGGTCTGT) | 0 |
| GATTGGTCATGGACCGGTTTTCCCGGTAATCCGTATTTGAC (site GATTGGACTGT) | 0 |
| GATTGGTCATGGACCGGTTTTCCCGGTAATCCGTATTTGAC (site GATTGGCCTGT) | 0 |
| GATTGGTCATGGACCGGTTTTCCCGGTAATCCGTATTTGAC (site GATTGGGCTGT) | 0 |
| GATTGGTCATGGACCGGTTTTCCCGGTAATCCGTATTTGAC (site GATTGGTCTGT) | 0 |
| GATTTGCCATGGACCGGTTTTCCCGGTAATCCGTATTTGGA (site GATTTGCCTTC) | 0.0059 |
| GATTTGGCATGGACCGGTTTTCCCGGTAATCCGTATTTGTG (site AATTTGGCTCA) | 0.142 |
| GATTTGGCATGGACCGGTTTTCCCGGTAATCCGTATTTGTG (site CATTTGGCTCA) | 0.309 |
| GATTTGGCATGGACCGGTTTTCCCGGTAATCCGTATTTGTG (site GATTTGGCTCA) | 0.152 |
| GATTTGGCATGGACCGGTTTTCCCGGTAATCCGTATTTGTG (site TATTTGGCTCA) | 0.0288 |
